This note sets out measurements from BindingDB's records for doi:10.1021/jm800318d (Vertex Pharmaceuticals, 2008).

Each structure is given as a SMILES string.

The assay concerns the target DNA gyrase A/A/B/B tetramer (Escherichia coli (strain K12), UniProt P0AES4+P0AES6). In words: DNA Gyrase ATPase Assay.
Broadly, the Ki is a measure of affinity in units of concentration, obtained from inhibition or displacement. A lower Ki goes with higher affinity. With `CCNC(=O)Nc1nc2c(-n3cccn3)cc(-c3cccnc3)cc2[nH]1` [3-ethyl-1-[7-(1H-pyrazol-1-yl)-5-(pyridin-3-yl)-1H-1,3-benzodiazol-2-yl]urea], the inhibition constant (Ki) was < 4 nM.

Take `CCNC(=O)Nc1nc2c(-n3cccn3)cc(-c3cncnc3)cc2[nH]1` [3-ethyl-1-[7-(1H-pyrazol-1-yl)-5-(pyrimidin-5-yl)-1H-1,3-benzodiazol-2-yl]urea]: the Ki was < 4 nM.

As for `CCNC(=O)Nc1nc2cc(-c3ccn(C)c(=O)c3)cc(-c3ncccc3F)c2[nH]1` [3-ethyl-1-[7-(3-fluoropyridin-2-yl)-5-(1-methyl-2-oxo-1,2-dihydropyridin-4-yl)-1H-1,3-benzodiazol-2-yl]urea], the Ki was < 4 nM.

As for `CCNC(=O)Nc1nc2cc(-c3cccnc3)cc(-c3ncccc3F)c2[nH]1` [3-ethyl-1-[7-(3-fluoropyridin-2-yl)-5-(pyridin-3-yl)-1H-1,3-benzodiazol-2-yl]urea], the inhibition constant (Ki) was < 4 nM.

In the case of `CCNC(=O)Nc1nc2cc(-c3cccnc3)cc(-c3ccccn3)c2[nH]1` [3-ethyl-1-[7-(pyridin-2-yl)-5-(pyridin-3-yl)-1H-1,3-benzodiazol-2-yl]urea], the inhibition constant Ki was < 4 nM.

Take `CCNC(=O)Nc1nc2cc(-n3cnc(C(=O)NC4CC4)c3)c(F)cc2[nH]1` [N-cyclopropyl-1-{2-[(ethylcarbamoyl)amino]-6-fluoro-1H-1,3-benzodiazol-5-yl}-1H-imidazole-4-carboxamide]: the Ki was < 4 nM.

With `CCNC(=O)Nc1nc2c(-n3cccn3)cc(-n3cnc(C(=O)NC4CC4)c3)cc2[nH]1` [N-cyclopropyl-1-{2-[(ethylcarbamoyl)amino]-7-(1H-pyrazol-1-yl)-1H-1,3-benzodiazol-5-yl}-1H-imidazole-4-carboxamide], the Ki is < 4 nM.

Consider `CCNC(=O)Nc1nc2c(-c3ccccn3)cc(-n3cnc(C(=O)NC4CC4)c3)cc2[nH]1` [N-cyclopropyl-1-{2-[(ethylcarbamoyl)amino]-7-(pyridin-2-yl)-1H-1,3-benzodiazol-5-yl}-1H-imidazole-4-carboxamide], for which the Ki was < 4 nM.

For `CCNC(=O)Nc1nc2cc(-c3cccnc3)cc(C(=O)OC)c2[nH]1` [methyl 2-[(ethylcarbamoyl)amino]-5-(pyridin-3-yl)-1H-1,3-benzodiazole-7-carboxylate], the Ki was < 4 nM.
